This is an account of results in patent EP4389762A1, “INHIBITORS OF DUX4 ACTIVITY AND THEIR USE IN THERAPY” (Ospedale San Raffaele S.r.l., priority 2022, dated 2024).

One experiment concerns the target T1, DUX4 dbd (Homo sapiens, UniProt Q9UBX2).
T1 construct: employing pETGB1-6xHis-DUX4 dbd (residues 1-159) vector as template; GB1; made in house; host or cells: E. coli Rosetta2(DE3) pLys
The experiment is described as follows: His pull-down assay. The experiment is classed as binding. The conditions noted are these: purified His-DUX4 dbd immobilized, biotinylated MATR3 peptides. The protocol: To test the interaction between 6xHis-DUX4 dbd and MATR3 synthetic peptides (prepared by CASLO; Lot No.: P230321-01-01, P230321-01-02, Lot No.: P230321-01-03), 40 pmol of 6xHis-DUX4 dbd were immobilized on His-Select Nickel Affinity gel beads (Sigma) incubating 1 hour on rotation at 4°C in IPP100 buffer (10 mM Tris-HCl pH 8.00, 100 mM NaCl, 0.1% NP-40) supplemented with 0,1 mM PMSF. Next, 4 pmol of MATR3 synthetic peptides were added incubating on rotation for 2 hours at 4°C. MATR3 peptides were incubated with the beads as negative control. Beads were washed 4 times with IPP100 buffer, boiled in 50 µl of Laemmli Sample Buffer (Bio-Rad), centrifuged and the eluted proteins were collected. Samples were stored at -20°C. Pull-down samples were boiled at 95°C for 5 minutes and bounded fractions (10%) were loaded on 15% SDS-Page acrylamide gel. The immunoblotting was performed following the procedure reported above but the wet transfer was performed at 200mA for 1.5 hours (instead of 2 hours) at 4°C. To test the interaction between DUX4 dbd and 6xHis-SUM03-MATR3(210-255), 40 pmol of 6xHis-SUMO3-MATR3(210-255) were immobilized on His-Select Nickel Affinity gel beads (Sigma) incubating 1 hour on rotation at 4°C in IPP100 buffer (10 mM Tris-HCl pH 8.00, 100 mM NaCl, 0.1% NP-40) supplemented with 0,1 mM PMSF. Next, 40 pmol of DUX4(15-155) without tag were added incubating on rotation for 2 hours at 4°C. DUX4(15-155) alone was incubated with the beads as negative control. Beads were washed 4 times with IPP100 buffer, boiled in 50 µl of Laemmli Sample Buffer (Bio-Rad), centrifuged and the eluted proteins were collected. Samples were stored at -20°C. Pull-down samples were boiled at 95°C for 5 minutes and bounded fractions (10%) were loaded on two identical 15% SDS-Page acrylamide gel. The immunoblotting was performed following the procedure reported below.

The target in another experiment is T2, 6xHis-DUX4 dbd (UniProt Q9UBX2 1-159).
T2 construct: range 1-159; Expressed in E. coli from pET-GB1 and purified on nickel beads; The limits 1-159 come from the phrase pETGB1-6xHis-DUX4 dbd (residues 1-159); also called DUX4 dbd (HD1+HD2); not shown: 6xHis tag and GB1 solubility peptide of vector pET-GB1
The experiment is described as follows: GST pull-down with purified recombinant proteins.

T1 sequence (Q9UBX2 1-159): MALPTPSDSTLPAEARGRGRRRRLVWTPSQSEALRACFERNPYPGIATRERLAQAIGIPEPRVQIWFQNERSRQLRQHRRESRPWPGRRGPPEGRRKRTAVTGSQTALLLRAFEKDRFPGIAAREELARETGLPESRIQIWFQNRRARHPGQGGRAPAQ
T2 sequence (Q9UBX2 1-159): as above

As for “(Biotin)- ERCRDDSFFGETSHNYHKFDSEYERMGRGPG PLQERSLFEKKRGAPPSSNIEDFHGLLPK -NH2 [Peptide 3]”, the “interaction with DUX4 dbd (pulldown, synthetic peptides)” value on DUX4 dbd is given as “interacted with DUX4 dbd”; on DUX4 dbd (listed as Pep 3) it was “interact with DUX4 dbd”. “(Biotin)- SFDDRGPSLNPVLDYDHGSRSQESGYYDRMD YEDDRLRDGERCRDDSFFGETSHNYHKFDS-NH2 [Peptide 2]”: the “interaction with DUX4 dbd (pulldown, synthetic peptides)” value was “interacted with DUX4 dbd” on DUX4 dbd and “interact with DUX4 dbd” at DUX4 dbd (listed as Pep 2).

B1: GST-MATR3(2-151) (other)
chain: SKSFQQSSLSRDSQGHGRDLSAAGIGLLAAATQSLSMPASLGRMNQGTARLASLMNLGMSSSLNQQGAHSALSSASTSSHNLQSIFNIGSRGPLPLSSQHRGDADQASNILASFGLSARDLDELSRYPEDKITPENLPQILLQLKRRRTE
notes: not shown: GST tag and thrombin site of vector pGEX-2tk
Turning to B1, the binding result with 6xHis-DUX4 dbd was “no binding (tested: 40 pmol each)”.
